# Test system: HIV-IIIb
# Assay: Test A: Antiviral Assays in MT4 Cells
# Format: cell-based
# Conditions: Human immunodeficiency virus 1, IIIB, MT4, 120 h, MT-4 cells infected with HIV-IIIb (0.004 m.o.i.), 5 days of incubation, CellTiter-Glo chemiluminescence readout; read-out: EC50
# In short: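 MT-4 cells pre-infected with HIV-IIIb (0.004 m.o.i.) at 37 °C, then plated with 3-fold serially diluted compound (10 concentrations, quadruplicate, RPMI 1640/10% FBS). After 5 days at 37 °C, cell viability read by CellTiter-Glo chemiluminescence; mock-infected cells run in parallel.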
row,SMILES,EC50 [nM]
1,"Cc1cc2ccc(C#CC(C)(C)O)cc2c(-c2ccc(Cl)cc2)c1[C@H](OC(C)(C)C)C(=O)O [Compound 99, (S)-2-tert-Butoxy-2-(1-(4-chlorophenyl)-7-(3-hydroxy-3-methylbut-1-ynyl)-3-methylnaphthalen-2-yl)acetic acid]",107
2,"Cc1cc2ccc(C#CC3CCCC3)cc2c(-c2ccc(Cl)cc2)c1C(OC(C)(C)C)C(=O)O (stereo not shown) [Compound 74, 2-tert-Butoxy-2-(1-(4-chlorophenyl)-7-(cyclopentylethynyl)-3-methylnaphthalen-2-yl)acetic acid]",1200
3,"Cc1cc2c(-c3cncnc3)cc(F)cc2c(-c2ccc3c4c(ccnc24)CCO3)c1[C@H](OC(C)(C)C)C(=O)O (atropisomer, axis not shown) [Compound 153]",11000
4,"Cc1c(C(OC(C)(C)C)C(=O)O)c(-c2ccc(Cl)cc2)c2ccccc2c1C (stereo not shown) [Compound 127, 2-tert-Butoxy-2-(1-(4-chlorophenyl)-3,4-dimethylnaphthalen-2-yl)acetic acid]",87
5,"Cc1cc2cc(-c3cncn3C)ccc2c(-c2ccc(Cl)cc2)c1[C@H](OC(C)(C)C)C(=O)O [Compound 65, (S)-2-tert-butoxy-2-(1-(4-chlorophenyl)-3-methyl-6-(1-methyl-1H-imidazol-5-yl)naphthalen-2-yl)acetic acid]",190
6,"Cc1c(C(OC(C)(C)C)C(=O)O)c(-c2ccc(Cl)cc2)c2ccccc2c1-c1ccc(Cl)cc1 (stereo not shown) [Compound 140, 2-(1,4-Bis(4-chlorophenyl)-3-methylnaphthalen-2-yl)-2-tert-butoxyacetic acid]",1600
7,Cc1cc2ccccc2c(-c2ccc(C(F)(F)F)c3cccnc23)c1[C@H](OC(C)(C)C)C(=O)O [Compound 175],20000
8,"Cc1c(C(OC(C)(C)C)C(=O)O)c(-c2ccc(Cl)cc2)c2ccccc2c1-c1ccc(=O)[nH]c1 (stereo not shown) [Compound 144, 2-tert-Butoxy-2-(1-(4-chlorophenyl)-3-methyl-4-(6-oxo-1,6-dihydropyridin-3-yl)naphthalen-2-yl)acetic acid]",1300
9,"Cc1c([C@H](OC(C)(C)C)C(=O)O)c(-c2ccc3c4c(ccnc24)CCO3)c2ccccc2c1C(N)=O [Compound 183, (S)-2-tert-butoxy-2-((R)-4-carbamoyl-1-(2,3-dihydropyrano[4,3,2-de]quinolin-7-yl)-3-methylnaphthalen-2-yl)acetic acid]",351
10,"Cc1cc2ccccc2c(-c2ccc(Cl)cc2)c1[C@H](OC(C)(C)C)C(=O)O [Compound 3K, (S)-2-tert-butoxy-2-(1-(4-chlorophenyl)-3-methylnaphthalen-2-yl)acetic acid]",56
11,"CCc1c(C)c(C(OC(C)(C)C)C(=O)O)c(-c2ccc(Cl)cc2)c2ccccc12 (stereo not shown) [Compound 129, 2-tert-Butoxy-2-(1-(4-chlorophenyl)-4-ethyl-3-methylnaphthalen-2-yl)acetic acid]",170
12,"Cc1cc2ccc(CCC3(O)CCCC3)cc2c(-c2ccc(Cl)cc2)c1C(OC(C)(C)C)C(=O)O (stereo not shown) [Compound 91, 2-tert-butoxy-2-(1-(4-chlorophenyl)-7-(2-(1-hydroxycyclopentyl)ethyl)-3-methylnaphthalen-2-yl)acetic acid]",250
13,"C=Cc1ccc2cc(C)c(C(OC(C)(C)C)C(=O)O)c(-c3ccc(Cl)cc3)c2c1 (stereo not shown) [Compound 76, 2-tert-Butoxy-2-(1-(4-chlorophenyl)-3-methyl-7-vinylnaphthalen-2-yl)acetic acid]",930
14,"CN(C)Cc1cc2ccccc2c(-c2ccc(Cl)cc2)c1[C@H](OC(C)(C)C)C(=O)O [Compound 24, (S)-2-tert-Butoxy-2-(1-(4-chlorophenyl)-3-(dimethylaminomethyl)naphthalen-2-yl)acetic acid]",29000
15,"Cc1cc2ccc(C#CC(C)(C)N)cc2c(-c2ccc3c(c2)CCCO3)c1C(OC(C)(C)C)C(=O)O (stereo not shown) [Compound 87, 2-(7-(3-Amino-3-methylbut-1-ynyl)-1-(chroman-6-yl)-3-methylnaphthalen-2-yl)-2-tert-butoxyacetic acid]",72
16,"CC(C)=Cc1ccc2cc(C)c(C(OC(C)(C)C)C(=O)O)c(-c3ccc(Cl)cc3)c2c1 (stereo not shown) [Compound 77, 2-tert-butoxy-2-(1-(4-chlorophenyl)-3-methyl-7-(2-methylprop-1-enyl)naphthalen-2-yl)acetic acid]",8900
17,"CC(C)(C)O[C@H](C(=O)O)c1c(CN2CCOCC2)cc2ccccc2c1-c1ccc(Cl)cc1 [Compound 27, (S)-2-tert-Butoxy-2-(1-(4-chlorophenyl)-3-(morpholinomethyl)naphthalen-2-yl)acetic acid]",3500
18,"Cc1cc2ccccc2c(C2=CCCC2)c1[C@H](OC(C)(C)C)C(=O)O [Compound 12, (S)-2-tert-Butoxy-2-(1-cyclopentenyl-3-methylnaphthalen-2-yl)acetic acid]",110
19,"Cc1cc2cc(C(N)=O)c(F)cc2c(-c2ccc3c4c(ccnc24)CCO3)c1[C@H](OC(C)(C)C)C(=O)O (atropisomer, axis not shown) [Compound 168]",45000
20,"Cc1cc2ccc(Cl)cc2c(-c2ccc(Cl)cc2)c1C(OC(C)(C)C)C(=O)O (stereo not shown) [Compound 149, 2-tert-Butoxy-2-(7-chloro-1-(4-chlorophenyl)-3-methylnaphthalen-2-yl)acetic acid]",200
21,"Cc1cc2cc(C#N)c(F)cc2c(-c2ccc3c4c(ccnc24)CCO3)c1[C@H](OC(C)(C)C)C(=O)O (atropisomer, axis not shown) [Compound 169]",18000
22,"Cc1c(C(OC(C)(C)C)C(=O)O)c(-c2ccc(Cl)cc2)c2ccccc2c1-c1ccccc1 (stereo not shown) [Compound 136, 2-tert-Butoxy-2-(1-(4-chlorophenyl)-3-methyl-4-phenylnaphthalen-2-yl)acetic acid]",340
23,"Cc1c(C(OC(C)(C)C)C(=O)O)c(-c2ccc(Cl)cc2)c2ccccc2c1C#N (stereo not shown) [Compound 147, 2-tert-Butoxy-2-(1-(4-chlorophenyl)-4-cyano-3-methylnaphthalen-2-yl)acetic acid]",1100

# Same assay, conditions: MT-4 cells infected with HIV-IIIb (0.004 m.o.i.), 5 days of incubation, CellTiter-Glo chemiluminescence readout; read-out: EC50
row,SMILES,EC50 [nM]
1,"Cc1cc2cc(F)ccc2c(-c2ccc3c4c(ccnc24)CCO3)c1C(OC(C)(C)C)C(=O)O [Compound 43, 2-tert-butoxy-2-((R)-1-(2,3-dihydropyrano[4,3,2-de]quinolin-7-yl)-6-fluoro-3-methylnaphthalen-2-yl)acetic acid]",22
2,"Cc1cc2c(C#N)cc(F)cc2c(-c2ccc3c4c(ccnc24)CCO3)c1[C@H](OC(C)(C)C)C(=O)O [Compound 113A, (S)-2-tert-Butoxy-2-((R)-5-cyano-1-(2,3-dihydropyrano[4,3,2-de]quinolin-7-yl)-7-fluoro-3-methylnaphthalen-2-yl)acetic acid]",910
3,"Cc1cc2ccccc2c(-c2ccc3c4c(ccnc24)CCO3)c1[C@H](OC(C)(C)C)C(=O)O [Compound 6D, (S)-2-tert-Butoxy-2-((R)-1-(2,3-dihydropyrano[4,3,2-de]quinolin-7-yl)-3-methylnaphthalen-2-yl)acetic acid]",14
4,Cc1cc2ccccc2c(-c2ccc3c4c(ccnc24)CCO3)c1[C@H](OC(C)(C)C)C(=O)O [Compound 161],4700
5,"Cc1cc2ccccc2c(-c2ccc(C(F)(F)F)c3cccnc23)c1[C@H](OC(C)(C)C)C(=O)O [Compound 7E, (S)-2-tert-butoxy-2-((S)-3-methyl-1-(5-(trifluoromethyl)quinolin-8-yl)naphthalen-2-yl)acetic acid]",20000

# — patent US9102614B2, “Naphth-2-ylacetic acid derivatives to treat AIDS” (Gilead Sciences, Inc., priority 2010, dated 2015)
